From PMC9452538, “The antimicrobial peptide LI14 combats multidrug-resistant bacterial infections” (Communications Biology, 2022)
In brackets after ≈: the same amount, converted by molar mass. Peptide text beside a SMILES is read from it.

How the values were obtained:
[1] = system: MRSA 1518; assay: microbe, parasite or virus in culture; type: cell-based, Staphylococcus aureus; details: 1518
Method in brief: (§1)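 Broth microdilution per CLSI 2021 guidelines. Exponential-phase bacteria were diluted 1:1000 into MHB, and 1.5 × 10^6 CFUs/mL suspension was mixed with serially varied peptide concentrations to determine MIC.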

[2] = system: MRSA 1530; assay: microbe, parasite or virus in culture; type: cell-based, Staphylococcus aureus; details: 1530
Method in brief: as §1

[3] = system: E. faecalis 1F-1; assay: microbe, parasite or virus in culture; type: cell-based; details: 1F-1
Method in brief: as §1

[4] = system: E. faecalis A4 (VRE, VanA); assay: microbe, parasite or virus in culture; type: cell-based; details: A4 (VRE, VanA)
Method in brief: as §1

[5] = system: S. enteritidis ATCC 13076; assay: microbe, parasite or virus in culture; type: cell-based; details: ATCC 13076
Method in brief: as §1

[6] = system: E. coli 1F28 (tet(X4)); assay: microbe, parasite or virus in culture; type: cell-based, Escherichia coli; details: 1F28 (tet(X4))
Method in brief: as §1

[7] = system: E. coli B3-1 (tet(X4)); assay: microbe, parasite or virus in culture; type: cell-based, Escherichia coli; details: B3-1 (tet(X4))
Method in brief: as §1

[8] = system: E. coli C3 (blaNDM-1); assay: microbe, parasite or virus in culture; type: cell-based, Escherichia coli; details: C3 (blaNDM-1)
Method in brief: as §1

[9] = system: E. coli CP131 (mcr-3); assay: microbe, parasite or virus in culture; type: cell-based, Escherichia coli; details: CP131 (mcr-3)
Method in brief: as §1

[10] = system: E. coli G6 (blaNDM-5); assay: microbe, parasite or virus in culture; type: cell-based, Escherichia coli; details: G6 (blaNDM-5)
Method in brief: as §1

[11] = system: E. coli G92 (mcr-1); assay: microbe, parasite or virus in culture; type: cell-based, Escherichia coli; details: G92 (mcr-1)
Method in brief: as §1

[12] = system: A. baumannii ATCC 19609; assay: microbe, parasite or virus in culture; type: cell-based, Acinetobacter baumannii; details: ATCC 19609
Method in brief: as §1

[13] = system: A. baumannii C222 (tet(X6)); assay: microbe, parasite or virus in culture; type: cell-based, Acinetobacter baumannii; details: C222 (tet(X6))
Method in brief: as §1

[14] = system: P. aeruginosa PA14; assay: microbe, parasite or virus in culture; type: cell-based, Pseudomonas aeruginosa; details: PA14
Method in brief: as §1

[15] = system: P. cibarius HNCF44W (blaNDM-1 + tet(X6)); assay: organism not typed; type: cell-based
Method in brief: as §1

[16] = system: S. aureus ATCC 29213, MRSA T144, E. coli ATCC 25922, E. coli B2; assay: Time-killing assay; type: cell-based; details: MHB
Protocol: Bacteria from the exponential phase were diluted into MHB at 1:1,000, and bacteria suspensions (~10^5 CFUs/mL for Gram-positive bacteria, ~10^6 CFUs/mL for Gram-negative bacteria) were mixed with various concentrations of LI14 peptide and incubated at 37 °C for 0.5, 1, 2, 4, and 12 h, respectively. At intervals, samples were serially diluted ten-fold and plated on MHA plates. The amount of primary CFUs/mL was determined after overnight incubation of bacterial colonies.

[17] = system: E. coli ATCC 25922; assay: Resistance development study, serial passages; type: cell-based, Escherichia coli; details: 80 serial passages at sub-inhibitory concentration (0.5-fold MIC)
Protocol: The ability of LI14 peptide to induce resistance was studied as previously described. Resistance to the therapeutically important drugs rifampicin and ciprofloxacin was measured using S. aureus ATCC 29213 and E. coli ATCC 25922 as test strains. The middle and final MICs were monitored after eighty such serial passages exposed to the tested medicines (0.5-fold MIC), and the fold change in MIC increase was recorded.

[18] = system: CD-1 mice; type: in vivo; details: 10 mg/kg i.p. daily for 6 days, n = 4
Protocol: LI14 (10 mg/kg, body weight) was intra-peritoneally injected into CD-1 mice (n = 4 biologically independent animals per group) every day for 6 days[64]. Mice were weighed daily and the behaviors of the mice were inspected for one week. Blood from mice was collected on the seventh day for whole-blood cell analysis and kidney chemistry profile. At the same time, the heart, liver, spleen, lung, and kidney of mice were collected for H.E. staining.
Supplementary Fig. 5 In vivo toxicity assessment of LI14 peptide.
(a) Scheme of the LI14 peptide toxicity study in mice. CD-1 female mice (n = 4 biologically independent animals per group) were intraperitoneally administered with LI14 (10 mg/kg) daily […]. (b-e) Body weight (b), whole-blood cell profiles (c), serum biochemical […]
(1 picture or pasted object on this page, not shown here)

[19] = system: E. coli B2; assay: Galleria mellonella infection model; type: in vivo; details: E. coli B2 infected G. mellonella; 50 mg/kg of LI14 at 1 h after infection; 7 days; n = 8
Protocol: (§2) Galleria mellonella larvae (supplied by Huiyude Biotech Company, Tianjin, China) were separated into six groups (n = 8 biologically independent animals per group) and infection models by injecting MRSA T144 and E. coli B2 cultures, respectively (10 µL, 1.0 × 10^5 CFUs per larvae) into the right posterior gastropoda[42],[48]. The infected larvae were treated by giving LI14 peptide (10, 20, 50 mg/kg), ampicillin/rifampicin (10 mg/kg) or a mixture of LI14 with ampicillin/rifampicin (10 + 10 mg/kg) in the left posterior gastropoda after 1 h infection, with the PBS injection group serving as a control treatment. Within 7 days, survival rates of Galleria mellonella larvae were inspected and recorded.

[20] = system: MRSA T144; assay: Galleria mellonella infection model; type: in vivo; details: MRSA T144 infected G. mellonella; 50 mg/kg of LI14 at 1 h after infection; 7 days; n = 8
Protocol: as §2

## CC[C@H](C)[C@H](NC(=O)[C@H](CCCNC(=N)N)NC(=O)[C@H](CS)NC(=O)[C@H](CC(C)C)NC(=O)[C@H](CCCCN)NC(=O)[C@H](CCCCN)NC(=O)[C@H](CC(C)C)NC(=O)[C@@H](NC(=O)[C@H](CCCNC(=N)N)NC(=O)[C@H](CS)NC(=O)[C@H](CC(C)C)NC(=O)[C@H](CCCCN)NC(=O)[C@H](CCCCN)NC(=O)[C@@H](N)CC(C)C)[C@@H](C)CC)C(N)=O [LI14] (H-LKKLCRILKKLCRI-NH2)
[1]
  MIC: 64 µg/mL (≈ 37.1 µM)
[2]
  MIC: 64 µg/mL (≈ 37.1 µM)
[3]
  MIC: 64 µg/mL (≈ 37.1 µM)
[4]
  MIC: 8 µg/mL (≈ 4.63 µM)
[5]
  MIC: 8 µg/mL (≈ 4.63 µM)
[6]
  MIC: 8 µg/mL (≈ 4.63 µM)
[7]
  MIC: 8 µg/mL (≈ 4.63 µM)
[8]
  MIC: 4 µg/mL (≈ 2.32 µM)
[9]
  MIC: 4 µg/mL (≈ 2.32 µM)
[10]
  MIC: 4 µg/mL (≈ 2.32 µM)
[11]
  MIC: 8 µg/mL (≈ 4.63 µM)
[12]
  MIC: 8 µg/mL (≈ 4.63 µM)
[13]
  MIC: 16 µg/mL (≈ 9.26 µM)
[14]
  MIC: 16 µg/mL (≈ 9.26 µM)
[15]
  MIC: 8 µg/mL (≈ 4.63 µM)
[16]; 8 μg/mL LI14, three tested strains, except for MRSA T144
  Killing of the tested strains at 12 h: completely eliminate
[16]; 32 μg/mL LI14, ~10^6 CFUs/mL, 37 °C
  Time to eliminate all E. coli strains: ≤ 0.5 h
[17]
  Increase in MIC after serial passages: 8 fold
[18]
  Behavior and body weight: did not observe murine behavior changes or body weight loss
  H.E. staining of heart, liver, spleen, lung, kidney: no significant difference in histological morphology
  Whole-blood cell profiles and serum biochemical index: no significant difference compared with the control group
[19]
  Survival rate of larvae: 75%
[20]
  Survival rate of larvae: 100%
